Results as given in US20260022142A1, “MACROCYCLIC IMMUNOMODULATORS” (Bristol-Myers Squibb Company, priority 2022, published 2026).
Bridge positions count the residues as written; N and C are the ends. Square brackets hold non-standard residues; d marks the D form. Peptide text beside a SMILES is read from it. * marks the point of attachment. ξ: configuration not given here. Bip = N[C@@H](Cc1ccc(-c2ccccc2)cc1)C(=O)O; Phe(3-Me) = Cc1cccc(C[C@H](N)C(=O)O)c1; ξBip = NC(Cc1ccc(-c2ccccc2)cc1)C(=O)O; 4Pal = N[C@@H](Cc1ccncc1)C(=O)O; Cha = N[C@@H](CC1CCCCC1)C(=O)O; Cit = NC(=O)NCCC[C@H](N)C(=O)O; Carboxymethyl = O=C(O)C*; Orn = NCCC[C@H](N)C(=O)O; Aun = NCCCCCCCCCCC(=O)O; Dab = NCC[C@H](N)C(=O)O; Dap = NC[C@H](N)C(=O)O; ξD = NC(CC(=O)O)C(=O)O; AEEA = NCCOCCOCC(=O)O

Target: T1, PD-1/PD-L1 interaction (PE-labeled human PD-L1-Ig binding to Jurkat cell line over-expressing human PD-1) (Homo sapiens, UniProt Q15116)
T1 construct: expressed in transfected cells; host or cells: Jurkat
T1 sequence (Q15116 25-288): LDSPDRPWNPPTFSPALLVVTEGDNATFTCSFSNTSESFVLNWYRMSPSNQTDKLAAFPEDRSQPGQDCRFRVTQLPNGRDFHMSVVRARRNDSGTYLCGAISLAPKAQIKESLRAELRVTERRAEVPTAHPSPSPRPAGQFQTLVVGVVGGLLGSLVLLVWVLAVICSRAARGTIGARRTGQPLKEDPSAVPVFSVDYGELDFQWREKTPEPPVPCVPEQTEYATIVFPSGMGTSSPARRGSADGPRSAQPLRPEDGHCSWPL
Assay: Jurkat-PD-1 Cell Binding High-Content Screening Assay (CBA)
Assay type: cell-based
Conditions: Jurkat cell line over-expressing human PD-1; PE-labeled PD-L1-Ig 20 nM final; read-out: Jurkat hPD1-PDL1 IC50
Procedure, shortened: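 Human PD-L1-Ig carrying a covalent PE label on its Ig tag serves as the probe, applied at 20 nM final to compound-treated (2 h, 37° C) Jurkat-hPD-1 cells in medium with 10% fetal calf serum. After one hour, fixation and nuclear staining precede high-content image analysis.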

An IC50 of 104 nM was found for Cc1cccc(C[C@@H]2NC(=O)[C@H](CC(=O)O)NC(=O)[C@H](Cc3ccncc3)NC(=O)[C@H](Cc3ccc(OCC(=O)O)cc3)NC(=O)CSC[C@@H](C(=O)N[C@@H](CCCN)C(=O)NCCCCCCCCCCC(=O)O)NC(=O)[C@H]([C@@H](C)O)NC(=O)[C@H](C(C)C)NC(=O)[C@H](CC3CCCCC3)NC(=O)[C@H](CCN)NC(=O)[C@@H](CC(C)C)NC(=O)[C@H](CCCN)NC(=O)[C@H](C(C)C)NC(=O)[C@H](Cc3ccc(-c4ccccc4)cc3)NC(=O)[C@H](C(C)C)NC2=O)c1 [Compound 1165] ({CH2CO}-Y(Carboxymethyl)[4Pal]D[Phe(3-Me)]V[Bip]V[Orn][dL][Dab][Cha]VTC[Orn][Aun]-OH; thioether N-14) in this work.

An IC50 of 28 nM was found for Cc1cccc(C[C@@H]2NC(=O)[C@H](CC(=O)O)NC(=O)[C@H](Cc3ccncc3)NC(=O)[C@H](Cc3ccc(OCC(=O)O)cc3)NC(=O)CSC[C@@H](C(=O)N[C@@H](CCCCN)C(=O)NCCCCCCCCCCC(=O)O)NC(=O)[C@H]([C@@H](C)O)NC(=O)[C@H](C(C)C)NC(=O)[C@H](CC3CCCCC3)NC(=O)[C@H](CCN)NC(=O)[C@@H](CC(C)C)NC(=O)[C@H](CCCN)NC(=O)[C@H](C(C)C)NC(=O)[C@H](Cc3ccc(-c4ccccc4)cc3)NC(=O)[C@H](C(C)C)NC2=O)c1 [Compound 1166] ({CH2CO}-Y(Carboxymethyl)[4Pal]D[Phe(3-Me)]V[Bip]V[Orn][dL][Dab][Cha]VTCK[Aun]-OH; thioether N-14) in this work.

An IC50 of 80.1 nM was found for Cc1cccc(C[C@@H]2NC(=O)[C@H](CC(=O)O)NC(=O)[C@H](Cc3ccncc3)NC(=O)[C@H](Cc3ccc(OCC(=O)O)cc3)NC(=O)CSC[C@@H](C(=O)N[C@@H](CCCNC(=N)N)C(=O)NCCCCCCCCCCC(=O)O)NC(=O)[C@H]([C@@H](C)O)NC(=O)[C@H](C(C)C)NC(=O)[C@H](CC3CCCCC3)NC(=O)[C@H](CCN)NC(=O)[C@@H](CC(C)C)NC(=O)[C@H](CCCN)NC(=O)[C@H](C(C)C)NC(=O)[C@H](Cc3ccc(-c4ccccc4)cc3)NC(=O)[C@H](C(C)C)NC2=O)c1 [Compound 1167] ({CH2CO}-Y(Carboxymethyl)[4Pal]D[Phe(3-Me)]V[Bip]V[Orn][dL][Dab][Cha]VTCR[Aun]-OH; thioether N-14) in this work.

An IC50 of 147 nM was found for Cc1cccc(C[C@@H]2NC(=O)[C@H](CC(=O)O)NC(=O)[C@H](Cc3ccncc3)NC(=O)[C@H](Cc3ccc(OCC(=O)O)cc3)NC(=O)CSC[C@@H](C(=O)N[C@@H](Cc3cnc[nH]3)C(=O)NCCCCCCCCCCC(=O)O)NC(=O)[C@H]([C@@H](C)O)NC(=O)[C@H](C(C)C)NC(=O)[C@H](CC3CCCCC3)NC(=O)[C@H](CCN)NC(=O)[C@@H](CC(C)C)NC(=O)[C@H](CCCN)NC(=O)[C@H](C(C)C)NC(=O)[C@H](Cc3ccc(-c4ccccc4)cc3)NC(=O)[C@H](C(C)C)NC2=O)c1 [Compound 1168] ({CH2CO}-Y(Carboxymethyl)[4Pal]D[Phe(3-Me)]V[Bip]V[Orn][dL][Dab][Cha]VTCH[Aun]-OH; thioether N-14) in this work.

An IC50 of 28.7 nM was found for Cc1cccc(C[C@@H]2NC(=O)[C@H](CC(=O)O)NC(=O)[C@H](Cc3ccncc3)NC(=O)[C@H](Cc3ccc(OCC(=O)O)cc3)NC(=O)CSC[C@@H](C(=O)NCCOCCOCC(=O)N[C@@H](CN)C(=O)NCCCCCCCCCCC(=O)O)NC(=O)[C@H]([C@@H](C)O)NC(=O)[C@H](C(C)C)NC(=O)[C@H](CC3CCCCC3)NC(=O)[C@H](CCN)NC(=O)[C@@H](CC(C)C)NC(=O)[C@H](CCCN)NC(=O)[C@H](C(C)C)NC(=O)[C@H](Cc3ccc(-c4ccccc4)cc3)NC(=O)[C@H](C(C)C)NC2=O)c1 [Compound 1169] ({CH2CO}-Y(Carboxymethyl)[4Pal]D[Phe(3-Me)]V[Bip]V[Orn][dL][Dab][Cha]VTC[AEEA][Dap][Aun]-OH; thioether N-14) in this work.

An IC50 of 37.9 nM was found for Cc1cccc(C[C@@H]2NC(=O)[C@H](CC(=O)O)NC(=O)[C@H](Cc3ccncc3)NC(=O)[C@H](Cc3ccc(OCC(=O)O)cc3)NC(=O)CSC[C@@H](C(=O)NCCOCCOCC(=O)N[C@@H](CCN)C(=O)NCCCCCCCCCCC(=O)O)NC(=O)[C@H]([C@@H](C)O)NC(=O)[C@H](C(C)C)NC(=O)[C@H](CC3CCCCC3)NC(=O)[C@H](CCN)NC(=O)[C@@H](CC(C)C)NC(=O)[C@H](CCCN)NC(=O)[C@H](C(C)C)NC(=O)[C@H](Cc3ccc(-c4ccccc4)cc3)NC(=O)[C@H](C(C)C)NC2=O)c1 [Compound 1170] ({CH2CO}-Y(Carboxymethyl)[4Pal]D[Phe(3-Me)]V[Bip]V[Orn][dL][Dab][Cha]VTC[AEEA][Dab][Aun]-OH; thioether N-14) in this work.

An IC50 of 28 nM was found for Cc1cccc(C[C@@H]2NC(=O)[C@H](CC(=O)O)NC(=O)[C@H](Cc3ccncc3)NC(=O)[C@H](Cc3ccc(OCC(=O)O)cc3)NC(=O)CSC[C@@H](C(=O)NCCOCCOCC(=O)N[C@@H](CCCN)C(=O)NCCCCCCCCCCC(=O)O)NC(=O)[C@H]([C@@H](C)O)NC(=O)[C@H](C(C)C)NC(=O)[C@H](CC3CCCCC3)NC(=O)[C@H](CCN)NC(=O)[C@@H](CC(C)C)NC(=O)[C@H](CCCN)NC(=O)[C@H](C(C)C)NC(=O)[C@H](Cc3ccc(-c4ccccc4)cc3)NC(=O)[C@H](C(C)C)NC2=O)c1 [Compound 1171] ({CH2CO}-Y(Carboxymethyl)[4Pal]D[Phe(3-Me)]V[Bip]V[Orn][dL][Dab][Cha]VTC[AEEA][Orn][Aun]-OH; thioether N-14) in this work.

An IC50 of 25 nM was found for Cc1cccc(C[C@@H]2NC(=O)[C@H](CC(=O)O)NC(=O)[C@H](Cc3ccncc3)NC(=O)[C@H](Cc3ccc(OCC(=O)O)cc3)NC(=O)CSC[C@@H](C(=O)NCCOCCOCC(=O)N[C@@H](CCCCN)C(=O)NCCCCCCCCCCC(=O)O)NC(=O)[C@H]([C@@H](C)O)NC(=O)[C@H](C(C)C)NC(=O)[C@H](CC3CCCCC3)NC(=O)[C@H](CCN)NC(=O)[C@@H](CC(C)C)NC(=O)[C@H](CCCN)NC(=O)[C@H](C(C)C)NC(=O)[C@H](Cc3ccc(-c4ccccc4)cc3)NC(=O)[C@H](C(C)C)NC2=O)c1 [Compound 1172] ({CH2CO}-Y(Carboxymethyl)[4Pal]D[Phe(3-Me)]V[Bip]V[Orn][dL][Dab][Cha]VTC[AEEA]K[Aun]-OH; thioether N-14) in this work.

An IC50 of 16.6 nM was found for Cc1cccc(C[C@@H]2NC(=O)C(CC(=O)O)NC(=O)[C@H](Cc3ccc(OCC(=O)O)cc3)NC(=O)[C@H](CN)NC(=O)CSC[C@@H](C(=O)N[C@@H](CCCNC(=N)N)C(=O)NCCCCCCCCCCC(=O)O)NC(=O)[C@H]([C@@H](C)O)NC(=O)[C@H](C(C)C)NC(=O)[C@H](CC3CCCCC3)NC(=O)[C@H](CCN)NC(=O)[C@@H](CC(C)C)NC(=O)[C@H](CCCN)NC(=O)[C@H](CCCNC(N)=O)NC(=O)C(Cc3ccc(-c4ccccc4)cc3)NC(=O)[C@H](C(C)C)NC2=O)c1 (stereo partly drawn) [Compound 1174] ({CH2CO}-[Dap]Y(Carboxymethyl)[ξD][Phe(3-Me)]V[ξBip][Cit][Orn][dL][Dab][Cha]VTCR[Aun]-OH; thioether N-14) in this work.

An IC50 of 19.9 nM was found for Cc1cccc(C[C@@H]2NC(=O)C(CC(=O)O)NC(=O)[C@H](Cc3ccc(OCC(=O)O)cc3)NC(=O)[C@H](CN)NC(=O)CSC[C@@H](C(=O)N[C@@H](Cc3cnc[nH]3)C(=O)NCCCCCCCCCCC(=O)O)NC(=O)[C@H]([C@@H](C)O)NC(=O)[C@H](C(C)C)NC(=O)[C@H](CC3CCCCC3)NC(=O)[C@H](CCN)NC(=O)[C@@H](CC(C)C)NC(=O)[C@H](CCCN)NC(=O)[C@H](CCCNC(N)=O)NC(=O)C(Cc3ccc(-c4ccccc4)cc3)NC(=O)[C@H](C(C)C)NC2=O)c1 (stereo partly drawn) [Compound 1175] ({CH2CO}-[Dap]Y(Carboxymethyl)[ξD][Phe(3-Me)]V[ξBip][Cit][Orn][dL][Dab][Cha]VTCH[Aun]-OH; thioether N-14) in this work.

An IC50 of 7.2 nM was found for Cc1cccc(C[C@@H]2NC(=O)C(CC(=O)O)NC(=O)[C@H](Cc3ccc(OCC(=O)O)cc3)NC(=O)[C@H](CN)NC(=O)CSC[C@@H](C(=O)NCCOCCOCC(=O)N[C@@H](CN)C(=O)NCCCCCCCCCCC(=O)O)NC(=O)[C@H]([C@@H](C)O)NC(=O)[C@H](C(C)C)NC(=O)[C@H](CC3CCCCC3)NC(=O)[C@H](CCN)NC(=O)[C@@H](CC(C)C)NC(=O)[C@H](CCCN)NC(=O)[C@H](CCCNC(N)=O)NC(=O)C(Cc3ccc(-c4ccccc4)cc3)NC(=O)[C@H](C(C)C)NC2=O)c1 (stereo partly drawn) [Compound 1176] ({CH2CO}-[Dap]Y(Carboxymethyl)[ξD][Phe(3-Me)]V[ξBip][Cit][Orn][dL][Dab][Cha]VTC[AEEA][Dap][Aun]-OH; thioether N-14) in this work.

An IC50 of 8.3 nM was found for Cc1cccc(C[C@@H]2NC(=O)C(CC(=O)O)NC(=O)[C@H](Cc3ccc(OCC(=O)O)cc3)NC(=O)[C@H](CN)NC(=O)CSC[C@@H](C(=O)NCCOCCOCC(=O)N[C@@H](CCN)C(=O)NCCCCCCCCCCC(=O)O)NC(=O)[C@H]([C@@H](C)O)NC(=O)[C@H](C(C)C)NC(=O)[C@H](CC3CCCCC3)NC(=O)[C@H](CCN)NC(=O)[C@@H](CC(C)C)NC(=O)[C@H](CCCN)NC(=O)[C@H](CCCNC(N)=O)NC(=O)C(Cc3ccc(-c4ccccc4)cc3)NC(=O)[C@H](C(C)C)NC2=O)c1 (stereo partly drawn) [Compound 1177] ({CH2CO}-[Dap]Y(Carboxymethyl)[ξD][Phe(3-Me)]V[ξBip][Cit][Orn][dL][Dab][Cha]VTC[AEEA][Dab][Aun]-OH; thioether N-14) in this work.

An IC50 of 9.7 nM was found for Cc1cccc(C[C@@H]2NC(=O)C(CC(=O)O)NC(=O)[C@H](Cc3ccc(OCC(=O)O)cc3)NC(=O)[C@H](CN)NC(=O)CSC[C@@H](C(=O)NCCOCCOCC(=O)N[C@@H](CCCN)C(=O)NCCCCCCCCCCC(=O)O)NC(=O)[C@H]([C@@H](C)O)NC(=O)[C@H](C(C)C)NC(=O)[C@H](CC3CCCCC3)NC(=O)[C@H](CCN)NC(=O)[C@@H](CC(C)C)NC(=O)[C@H](CCCN)NC(=O)[C@H](CCCNC(N)=O)NC(=O)C(Cc3ccc(-c4ccccc4)cc3)NC(=O)[C@H](C(C)C)NC2=O)c1 (stereo partly drawn) [Compound 1178] ({CH2CO}-[Dap]Y(Carboxymethyl)[ξD][Phe(3-Me)]V[ξBip][Cit][Orn][dL][Dab][Cha]VTC[AEEA][Orn][Aun]-OH; thioether N-14) in this work.
